Assays:
[1] = system: human platelet aggregation (ADP-induced, platelet rich plasma); assay: Human platelet aggregation inhibition activity measuring test (ADP-induced, PRP); format: cell-based; settings: 10 μM final concentration of compound; human PRP 3×10^8 platelets/ml; ADP (50 μM, 10 μl) induced; area under platelet aggregation curve
Method: Test Method (1) Human Platelet Aggregation Inhibition Activity Measuring Test
A blood sample was collected from a healthy volunteers (adult) using a syringe containing 1/10th volume of 3.8% sodium citrate solution and centrifuged at 160×g for 10 minutes, thereby separating platelet rich plasma (PRP) of the supernatant. Remaining blood after the collection of PRP was centrifuged at 1,800×g for 10 minutes to separate platelet poor plasma (PPP). The number of platelets in the PRP was measured by an automatic blood cell counter (MEK-6258, Nihon Kohden Corp.), and then the number of platelets was adjusted to 3×10^8/ml by adding PPP to PRP and used in the following test. The ADP as an inducer of platelet aggregation was purchased from MC Medical. Platelet aggregation was measured using an aggregometer (MCM Hematracer 212; MC Medical). That is, 80 μl of PRP of 3×10^8 platelets/ml and 10 μl of a test compound solution or a solvent (10% DMSO or 10% DMSO-9% hydroxypropyl-β-cyclodextrin-4.5% d-mannitol) were incubated at 37° C. for 1 minute, and then 10 μl of ADP (50 μM) was added thereto to induce platelet aggregation, and changes in transmitted light were recorded for 5 minutes. The inhibition ratio was calculated using the area under platelet aggregation curve as an index.
In this connection, REx represents reference example number, and Ex Example compound number. In addition, Reference Examples 1 and 2 are the Example compounds described in the aforementioned Patent Reference 7, and were produced in accordance with the method described in said patent reference.

[2] = molecular target: T1, Human P2Y12 (Homo sapiens, UniProt Q9H244); assay: Substitution test for the binding of human P2Y12 with 2-methylthio-ADP (2-MeS-ADP); settings: 30 nM final concentration of compound; P2Y12 expression C6-15 cell membrane fraction; 0.75 nM [3H]- or [33P]-2-MeS-ADP
T1 construct: expressed in transfected cells; membrane fraction used
Method: Test Method (2) Substitution Test for the Binding of Human P2Y12 with 2-methylthio-ADP (2-MeS-ADP)
A C6-15 cell was inoculated into a 10 cm petri dish to a density of to 1×10^6 cells using DMEM medium and cultured for 1 day, and then 8 μg of a plasmid pEF-BOS-dfhr-human P2Y12 and 0.8 μg of pEF-BOS-neo (Nucleic Acid Res., 18, 5322, 1990) were gene-transferred using a transfection reagent (LipofectAMINE 2000; mfd. by GIBCO BRL).
24 hours after the aforementioned gene transfer operation, the gene-transferred cells were recovered, suspended in DMEM medium supplemented with 0.6 mg/ml of G 418 (mfd. by GIBCO BRL) and then serially diluted and inoculated again in a 10 cm petri dish. The colonies appeared after 2 weeks were individually obtained and used in the following test as P2Y12 protein expression C6-15 cells (WO 02/36631, Mol. Pharmacol., 60, 432, 2001).
After culturing the P2Y12 protein expression C6-15 cells, the cells were recovered. […]
A 100 μl portion of the P2Y12 protein expression C6-15 cell membrane fraction (100 μg/ml) obtained in the above was mixed with 1.5 μl of a test compound solution and 50 μl of 0.75 nM [^3H]-2-MeS-ADP (80 Ci/mmol, mfd. by Amersham Pharmacia Biotech) or 0.75 nM [^33P]-2-MeS-ADP (2100 Ci/mmol, mfd. by Perkin Elmer), incubated at room temperature for 1 hour in 50 mM Tris-HCl (pH 7.4) containing 100 mM NaCl and 50 mM MgCl2, and then recovered on a glass filter using a cell harvester. A microscintillator was added to the glass filter, and the radioactivity was measured using a liquid scintillation counter. Those to which the solvent alone was added and 1.5 μl of 250 μM ADP was added in the aforementioned test at the same time were regarded as total binding and nonspecific binding, and their radioactivity was measured. By regarding the total binding and nonspecific binding as inhibition ratio 0% and 100% respectively, inhibition ratio (%) of each compound to be tested was calculated.

[3] = system: rat platelet aggregation (ADP-induced, PRP); assay: Rat platelet aggregation inhibition test (oral administration, ex vivo ADP-induced aggregation); format: in vivo; settings: dose 30 mg/kg oral, male SD rat, blood collected 2 hours after administration
Method: Test Method (3) Rat Platelet Aggregation Inhibition Test and Measurement of Test Compound Concentration in Plasma
By adding sodium hydroxide aqueous solution to the compound of the present invention, 0.5% methyl cellulose aqueous solution or suspension was prepared. The thus prepared liquid was orally administered using a sonde to a male SD rat (5 to 7 weeks of age) of after 12 hours or more of fasting. After 2 hours of the compound administration, blood was collected using a syringe containing 1/10th volume of 3.8% sodium citrate solution. In the same manner as in Test method (1), PPP and PRP of 3×10^8 platelets/ml were prepared. A 90 μl portion of the PRP of 3×10^8 platelets/ml was incubated at 37° C. for 1 minute, and then 10 μl of ADP (50 μM) was added thereto to induce platelet aggregation, and changes in transmitted light were recorded for 5 minutes. The inhibition ratio was calculated using the area under platelet aggregation curve as an index.

T1 sequence (Q9H244 whole entry): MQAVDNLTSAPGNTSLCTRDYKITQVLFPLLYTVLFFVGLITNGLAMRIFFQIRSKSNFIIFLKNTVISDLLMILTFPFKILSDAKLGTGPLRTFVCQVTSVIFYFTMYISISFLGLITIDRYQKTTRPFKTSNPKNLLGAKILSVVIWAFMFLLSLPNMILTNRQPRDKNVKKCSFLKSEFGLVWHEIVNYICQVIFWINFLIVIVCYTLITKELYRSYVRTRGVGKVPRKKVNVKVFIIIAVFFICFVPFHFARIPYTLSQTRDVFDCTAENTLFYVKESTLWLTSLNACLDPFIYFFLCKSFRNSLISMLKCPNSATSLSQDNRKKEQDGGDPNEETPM

SMILES: O=C(O)CCC(=O)Nc1cn(C2CCCC2)c2cc(NC3CCCCC3)c(F)cc2c1=O [Ex 2, 4-{[7-(cyclohexylamino)-1-cyclopentyl-6-fluoro-4-oxo-1,4-dihydroquinolin-3-yl]amino}-4-oxobutanoic acid]
- inhibition at 10 µM [1]: 93%
- inhibition at 0.03 µM [2]: 89%

SMILES: O=C(O)CCCNC(=O)c1cn(C2CCCC2)c2cc(NC3CCCCC3)c(F)cc2c1=O [REx 1, 4-({[7-(cyclohexylamino)-1-cyclopentyl-6-fluoro-4-oxo-1,4-dihydroquinolin-3-yl]carbonyl}amino)butanoic Acid]
- inhibition at 10 µM [1]: 64%
- inhibition at 0.03 µM [2]: 76%
- inhibition at 30 mg/kg [3]: 11%

SMILES: O=C(O)CNC(=O)c1cn(C2CCCC2)c2cc(NC3CCCCC3)c(F)cc2c1=O [REx 2, ({[7-(cyclohexylamino)-1-cyclopentyl-6-fluoro-4-oxo-1,4-dihydroquinolin-3-yl]carbonyl}amino)acetic Acid]
- inhibition at 10 µM [1]: 79%
- inhibition at 0.03 µM [2]: 86%
- inhibition at 30 mg/kg [3]: -7%
